Experimental data from US10532066B2, “Surfactant lipids, compositions thereof, and uses thereof” (National Jewish Health, priority 2007, dated 2020).

How the values were obtained:
Type in all cases: cell-based
[1] = target: T1, TLR3 (Homo sapiens, UniProt O15455); test: TLR agonist IL-8 production in primary human neutrophils, TLR3; design: endogenous in cells; host or cells: primary human neutrophils; details: poly IC, 5-24 h
T1 sequence (O15455 24-904): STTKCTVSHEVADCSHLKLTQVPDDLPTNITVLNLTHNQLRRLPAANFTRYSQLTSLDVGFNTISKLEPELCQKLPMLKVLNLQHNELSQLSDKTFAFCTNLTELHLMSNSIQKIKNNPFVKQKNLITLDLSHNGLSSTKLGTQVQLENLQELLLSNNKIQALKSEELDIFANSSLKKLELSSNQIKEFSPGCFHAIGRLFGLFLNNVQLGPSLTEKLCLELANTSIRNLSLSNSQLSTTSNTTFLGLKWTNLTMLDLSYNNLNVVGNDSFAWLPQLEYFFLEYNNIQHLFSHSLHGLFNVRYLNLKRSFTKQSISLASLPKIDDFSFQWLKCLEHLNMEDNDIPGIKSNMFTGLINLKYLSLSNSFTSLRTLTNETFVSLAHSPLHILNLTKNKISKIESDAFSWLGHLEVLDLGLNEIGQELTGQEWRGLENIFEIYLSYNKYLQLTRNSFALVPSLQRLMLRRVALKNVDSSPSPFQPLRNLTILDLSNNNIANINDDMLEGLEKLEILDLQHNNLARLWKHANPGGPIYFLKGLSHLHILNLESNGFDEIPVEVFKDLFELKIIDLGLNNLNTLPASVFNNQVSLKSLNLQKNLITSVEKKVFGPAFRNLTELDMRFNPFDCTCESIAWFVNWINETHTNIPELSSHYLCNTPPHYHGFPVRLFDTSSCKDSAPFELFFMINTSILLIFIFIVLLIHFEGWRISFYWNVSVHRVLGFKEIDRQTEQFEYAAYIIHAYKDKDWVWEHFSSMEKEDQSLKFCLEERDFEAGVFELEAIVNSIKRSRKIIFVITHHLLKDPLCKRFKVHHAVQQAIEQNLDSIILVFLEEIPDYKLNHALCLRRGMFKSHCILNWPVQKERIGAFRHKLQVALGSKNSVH
Experimental: In this experiment, multiple TLRs were stimulated with defined TLR agonists for 5-24 h as indicated, and the IL-8 production was measured. In each case the maximal stimulation by agonist is set at 100% and the antagonism by POPG is expressed as the relative % response. The Controls consist of no treatment, or treatment with POPG, in the absence of agonist as indicated. The agonists for the TLRs consist of Pam3Cys for TLR1/2, double stranded RNA (poly IC) for TLR3, Gram-negative lipopolysaccharide (LPS) for TLR4, and single stranded RNA (polyU) for TLR7/8.

[2] = target: T2, TLR1 (Homo sapiens, UniProt Q15399); test: TLR agonist IL-8 production in BEAS2B epithelial cells, TLR1; design: endogenous in cells; host or cells: BEAS2B; details: Pam3Cys, 48 h
T2 sequence (Q15399 25-786): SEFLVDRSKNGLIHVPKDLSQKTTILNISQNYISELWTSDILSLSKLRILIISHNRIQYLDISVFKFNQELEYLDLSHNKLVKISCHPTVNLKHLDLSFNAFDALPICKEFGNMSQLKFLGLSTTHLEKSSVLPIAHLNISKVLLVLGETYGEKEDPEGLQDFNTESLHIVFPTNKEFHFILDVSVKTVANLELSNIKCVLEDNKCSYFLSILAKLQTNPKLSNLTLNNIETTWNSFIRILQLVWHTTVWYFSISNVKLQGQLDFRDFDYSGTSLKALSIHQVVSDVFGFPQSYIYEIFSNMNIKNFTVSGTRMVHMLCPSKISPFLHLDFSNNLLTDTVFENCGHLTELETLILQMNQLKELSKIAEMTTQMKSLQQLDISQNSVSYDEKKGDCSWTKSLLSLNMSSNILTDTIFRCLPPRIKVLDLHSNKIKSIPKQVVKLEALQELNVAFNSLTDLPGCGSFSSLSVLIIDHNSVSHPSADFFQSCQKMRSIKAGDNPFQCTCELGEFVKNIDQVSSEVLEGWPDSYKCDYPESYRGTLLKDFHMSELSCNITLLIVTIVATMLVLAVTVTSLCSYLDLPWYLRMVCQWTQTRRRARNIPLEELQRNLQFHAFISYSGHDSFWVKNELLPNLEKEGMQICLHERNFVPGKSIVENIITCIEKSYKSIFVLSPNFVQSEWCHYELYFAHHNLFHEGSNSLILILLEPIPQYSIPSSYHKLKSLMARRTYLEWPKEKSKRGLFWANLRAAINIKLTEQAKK
Experimental: In this experiment, multiple TLRs were stimulated with defined TLR agonists for 48 h, and the IL-8 production was measured. In each case, the maximal stimulation by agonist is set at 100% and the antagonism by POPG or PI is expressed as the relative % response. The Controls consist of no treatment, or treatment with POPG, or phosphatidylcholine (POPC), or phosphatidylinositol (PI), in the absence of agonist as indicated. The agonists for the TLRs consist of Pam3Cys for TLR1/2, Mycoplasma pneumoniae membranes as an agonist for TLR2, Mycoplasma fermentans derived MALP2 as an agonist for TLR 2/6, double stranded RNA (poly IC) for TLR3, and bacterial flagellin (Fla) as an agonist for TLR5.
Monolayers of BEAS2B cells were challenged with the TLR1/2 agonist, Pam3Cys (25 ug/ml); the TLR 2/6 agonist MALP2 (10 ng/ml); the TLR2 agonist mycoplasma membrane (Mem) (1 ug/ml); the TLR3 agonist, poly I:C (0.1 ug/ml); and the TLR5 agonist, flagellin (100 ng/ml). For each agonist parallel incubations were performed containing 200 ug/ml POPG as liposomes, or 200 ug/ml POPG as nanodises as indicated.

[3] = target: T3, TLR3 (Mus musculus, UniProt Q99MB1); test: TLR agonist TNFα production in RAW 264.7 cells, TLR3; details: poly IC, 24 h
T3 construct: endogenous in cells; host or cells: RAW 264.7
T3 sequence (Q99MB1 26-905): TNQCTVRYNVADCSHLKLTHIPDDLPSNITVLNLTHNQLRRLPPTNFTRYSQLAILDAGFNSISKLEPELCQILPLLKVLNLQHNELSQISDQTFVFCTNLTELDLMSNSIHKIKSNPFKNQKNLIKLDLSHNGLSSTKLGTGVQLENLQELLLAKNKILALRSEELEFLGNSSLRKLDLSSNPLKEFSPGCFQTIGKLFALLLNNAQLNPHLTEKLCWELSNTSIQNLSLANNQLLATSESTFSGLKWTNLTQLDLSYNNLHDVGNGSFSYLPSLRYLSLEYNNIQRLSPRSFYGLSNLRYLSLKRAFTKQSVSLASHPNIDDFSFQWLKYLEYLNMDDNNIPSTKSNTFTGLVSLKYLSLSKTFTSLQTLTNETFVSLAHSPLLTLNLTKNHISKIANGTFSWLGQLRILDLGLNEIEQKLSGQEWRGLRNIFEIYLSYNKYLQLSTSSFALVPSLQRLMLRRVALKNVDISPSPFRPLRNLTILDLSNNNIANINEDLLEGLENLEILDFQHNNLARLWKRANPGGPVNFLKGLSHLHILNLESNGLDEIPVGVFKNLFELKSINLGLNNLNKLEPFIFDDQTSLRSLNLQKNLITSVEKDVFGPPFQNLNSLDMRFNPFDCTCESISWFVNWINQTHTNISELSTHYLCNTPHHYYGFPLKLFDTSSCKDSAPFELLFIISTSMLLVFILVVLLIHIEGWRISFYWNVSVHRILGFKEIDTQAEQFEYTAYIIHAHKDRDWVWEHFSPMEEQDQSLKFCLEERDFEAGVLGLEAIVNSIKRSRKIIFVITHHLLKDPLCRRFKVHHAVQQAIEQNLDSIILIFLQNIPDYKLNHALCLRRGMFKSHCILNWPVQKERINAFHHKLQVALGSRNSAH
Experimental: In this experiment, multiple TLRs were stimulated with defined TLR agonists for 24 h and the TNFα production was measured. In each case, the maximal stimulation by agonist is set at 100% and the antagonism by POPG is expressed as the relative % response. The Controls consist of no treatment, or treatment with POPG in the absence of agonist as indicated. The agonists for the TLRs consist of Pam3Cys for TLR1/2, Mycoplasma pneumoniae membranes as an agonist for TLR2, mycoplasma derived MALP2 as an agonist for TLR 2/6, double stranded RNA (poly IC) for TLR3, Gram-negative lipopolysaccharide for TLR4, and CpG rich DNA as an agonist for TLR9. The TLR4 panel also contains the antagonist polymyxin B (PB) for comparison with POPG.

Molecule | activity of TLR3 (IL-8 production) [1] | activity of TLR1 (IL-8 production) [2] | activity of TLR3 (TNFα production) [3]
CCCCCCCC/C=C\CCCCCCCC(=O)O[C@H](COC(=O)CCCCCCCCCCCCCCC)COP(=O)(O)OCC(O)CO (stereo partly shown) [POPG, palmitoyl-oleoyl-phosphatidylglycerol] | inhibits | inhibit | inhibits
phosphatidylinositol [PI] |  | inhibit | 
